In patent US6350909B1, “Methoxymino-phenylacetamide derivatives and their utilization as pesticides” (Bayer Aktiengesellschaft, priority 1998, dated 2002):

| Compound | melting point |
| --- | --- |
| COCC(=O)NC(=O)C(=NOC)c1ccccc1CO/N=C(\C)c1ccc(C(F)(F)F)cc1 [Example 1, 2-methoxy-N-(methoxyimino-{2-[1-(4-trifluoromethylphenyl)-ethylideneaminooxymethyl]-phenyl}-acetyl)-acetamide] | 134 to 138 °C |
| CON=C(C(=O)NC(=O)CCl)c1ccccc1CO/N=C(\C)c1ccc(C(F)(F)F)cc1 [Example 2, 2-chloro-N-(methoxyimino-{2-[1-(4-trifluoromethylphenyl)-ethylideneaminooxymethyl]-phenyl}-acetyl)-acetamide] | 92 °C (dec.) |
